US7449190B2 (priority 2002, dated 2008)

Tests used:
[1] = test system: interaction of NP with VP35; format: biochemical, Ebola virus
NP = format: cell-based, Ebola virus
HIV gp160 = format: cell-based

CC(=O)N[C@H]1[C@@H](OCc2ccccc2)O[C@H](CO)[C@H](O)[C@@H]1O [benzyl 2-acetamido-2-deoxy-a-D-galactopyranoside]
effect in the in vitro transcription/translation system (NP synthesis or association of NP with VP35 and VP24) [1]: without any effect

CCCCCCCCO[C@H]1O[C@H](CO)[C@@H](O)[C@H](O)[C@@H]1O [Manα1-OC8, mannose α1-O-octyl]
dose dependence of inhibition of NP/VP35 interaction [1]: dose-dependent | inhibition of NP/VP35 interaction when added after translation [1]: did not inhibit | inhibition of the interaction of NP with VP35 [1]: substantially reduced

C[C@H]1CCC/C=C/[C@@H]2C[C@H](O)C[C@H]2[C@H](O)/C=C/C(=O)O1 [Brefeldin A]
effect in the in vitro transcription/translation system (NP synthesis or association of NP with VP35 and VP24) [1]: without any effect

CC(=O)N[C@H]1[C@@H](Oc2ccccc2)O[C@H](CO)[C@H](O)[C@@H]1O [phenyl N-acetyl-a-D-galactosaminide]
effect in the in vitro transcription/translation system (NP synthesis or association of NP with VP35 and VP24) [1]: without any effect

CC(=O)N[C@H]1[C@@H](OCc2ccccc2)O[C@H](CO)[C@H](O)[C@@H]1O[C@@H]1O[C@H](CO)[C@H](O)[C@H](O)[C@H]1O [benzyl 2-acetamido-2-deoxy-3-O-b-D-galactopyranosyl-a-D-galactopyranoside]
effect in the in vitro transcription/translation system (NP synthesis or association of NP with VP35 and VP24) [1]: without any effect

OC[C@H]1NC[C@@H](O)[C@@H](O)[C@@H]1O [deoxymannojirimycin]
effect on NP migration (glycosylation) in NP-transfected 293 cells (NP): No effect

O=C(N[C@H]1[C@H](OCc2ccccc2)O[C@H](CO)[C@@H](O)[C@@H]1O)OCc1ccccc1 [benzyl Z-b-D-glucosaminide]
effect in the in vitro transcription/translation system (NP synthesis or association of NP with VP35 and VP24) [1]: without any effect

tunicamycin
expression of HIV gp160 (HIV gp160): abolished | effect on NP migration (glycosylation) in NP-transfected 293 cells (NP): No effect | synthesis of NP in NP-transfected 293 cells (NP): unaffected

CCCCCCCCO[C@H]1O[C@H](COC(C)=O)[C@@H](OC(C)=O)[C@H](OC(C)=O)[C@@H]1OC(C)=O [AcManα1-OC8, acetylated Manα1-O-octyl]
inhibition of the interaction of NP with VP35 [1]: not seen

O=C(N[C@H]1[C@@H](OCc2ccccc2)O[C@H](CO)[C@@H](O)[C@@H]1O)OCc1ccccc1 [benzyl Z-a-D-glucosaminide]
effect in the in vitro transcription/translation system (NP synthesis or association of NP with VP35 and VP24) [1]: without any effect

CC(=O)N[C@H]1[C@H](OCc2ccccc2)O[C@H](CO)[C@@H](O)[C@@H]1O [benzyl 2-acetamido-2-deoxy-b-D-glucopyranoside]
effect in the in vitro transcription/translation system (NP synthesis or association of NP with VP35 and VP24) [1]: without any effect
